From patent publication US20230358751A1, “METHODS FOR THE DETECTION AND TREATMENT OF PROSTATE CANCER” (Board of Regents, The University of Texas System, priority 2020, published 2023)
Like-named read-outs stand apart in the source and are kept apart here.

Assays:
[1] = system: PC-3M prostate cancer cells; experiment: Lipidome alterations after short-term pharmacological inhibition of UGCG in PC-3M cells; assay type: cell-based, human; conditions: 6 hr, 128 μM Eliglustat, 64 μM PDMP, 64 μM PPMP
Text: (§1) FIGS. 16A, 16B, and 16C show (16A) the induction of autophagy/mitophagy by exposure of PC-3M prostate cancer cells to Eliglustat. (i) cytotoxicity (ii) apoptosis at 4 hrs (iii) apoptosis at 24 hrs. N=3 biologically independent replicates per experimental condition. Values represent log(relative fluorescence units)±StDev. Also shown are volcano plots illustrating differences in annotated lipid species stratified by lipid domains in (16B) PC-3M and (16C) RM-9 prostate cancer cells following 6 hr challenge with 128 μM Eliglustat. (i) acylcarnitines (ii) cardiolipins (iii) diacylglycerols (iv) ether lysophospholipids (v) ether phospholipids (vi) lysophospholipids (vii) phospholipids (viii) cholesterol esters (ix) triacylglycerols (x) sphingomyelins. N=3 biologically independent replicates per experimental condition.
(§2) Sample Extraction Following transfections, cell lysates were washed 2× with pre-chilled 0.9% NaCl followed by addition of 2.5 mL of pre-chilled 3:1 isopropanol:ultrapure water. Cells were scraped using a 25 cm Cell Scraper (Sarstedt) in extraction solvent and transferred to a 15 mL conical tube (Eppendorf). Samples were briefly vortexed followed by centrifugation at 4° C. for 10 min at 2,000×g. Thereafter, 1.2 mL of metabolite extracts were transferred to 1.5 mL Eppendorf tubes and stored in −20° C. until metabolomic analysis.
(§3) Complex Lipids Pre-aliquoted EDTA plasma samples (10 μL) were extracted with 30 μL of LCMS grade 2-propanol (ThermoFisher) in a 96-well microplate (Eppendorf). Plates were heat sealed, vortexed for 5 min at 750 rpm, and centrifuged at 2000×g for 10 minutes at room temperature. The supernatant (10 μL) was carefully transferred to a 96-well plate, leaving behind the precipitated protein. The supernatant was further diluted with 90 μL of 1:3:2 100 mM ammonium formate, pH 3 (ThermoFisher): acetonitrile: 2-propanol and transferred to a 384-well microplate (Eppendorf) for lipids analysis using LCMS. […]

[2] = system: RM-9 prostate cancer cells
Protocol: (§4) Horizontal axis=log(M); vertical axis=% viability relative to control. […] (i) vehicle (ii) 128 μM Eliglustat (iii) 64 μM PDMP (iv) 64 μM PPMP. Statistical significance was determined by 2-sided student t-test comparing the aggregate intensities of individual lipid species corresponding to the respective lipid domain.
(§5) To test this hypothesis, the efficacy of PDMP, PPMP and eliglustat three different inhibitors of glucosylceramide synthase (also known as UGCG; UDP-glucose:ceramide glucosyltransferase), a rate-limiting enzyme in glycosphingolipid metabolism, for reducing viability of RM-9 and PC-3M prostate cancer cells in vitro was then evaluated.

[3] = system: PC-3M prostate cancer cells
Protocol: as §4, §5

[4] = system: RM-9 prostate cancer cells; experiment: Lipidome alterations after short-term pharmacological inhibition of UGCG in RM-9 cells; assay type: cell-based, mouse; conditions: 6 hr, 128 μM Eliglustat, 64 μM PDMP, 64 μM PPMP
Text: as §1, §2, §3

[5] = system: PC-3M prostate cancer cells; experiment: Cytotoxicity and apoptosis of PC-3M cells exposed to eliglustat; assay type: cell-based
Protocol: as §5

PC-3M cells [6] = experiment: Mitophagy markers and mitochondrial morphology in PC-3M cells treated with eliglustat; assay type: cell-based, human
Protocol: FIGS. 17A, 17B, 17C, and 17D show representative confocal microscopy images for PC-3M cells following 24 hr pre-transfection with (i) CellLight Mitochondria-RFP (leader sequence of E1 alpha pyruvate dehydrogenase) or (ii) CellLight Lysosome-GFP (lysosomal associated 1052 membrane protein 1) followed by acute (6 hr) treatment with either (17A) vehicle or (17C) Eliglustat (128 μM). (17B) and (17D) correspond to enlargements of features from (17A) and (17C), respectively. (iii) merged images.

RM-9 tumors = experiment: RM-9-luciferase subcutaneous tumor model in C57BL/6N mice; assay type: in vivo, mouse
Protocol: FIGS. 19A, 19B, 19C, and 19D show the efficacy of eliglustat in an in vivo mouse model. (19A) Relative fluorescence units±SEM of RM-9 tumors following daily intraperitoneal injection with either (i) saline (n=23) or (ii) eliglustat (60 mg/kg) (n=9). (19B) Tumor Volume±SEM following treatment with either saline (n=15) or eliglustat (60 mg/kg) (n=8). Statistical significance was determined by 2-sided Wilcoxon-rank sum test. (19C) Representative IVIS images following treatment. (19D) Relative abundance (area units±StDev) of glycosphinoglipids in RM-9 tumors following treatment.
FIGS. 20A, 20B, 20C, 20D, 20E, and 20F show quantitative analyses derived from immunohistochemistry staining for (20A) Cav-1, (20B) BrdU-TUNEL, (20C) PCNA, (20D) HMGB1 and (20E) LC3B in RM-9 tumors following treatment with either saline (n=6-8 mice) or eliglustat (n=7 mice). Vertical axes are (20A) Cav-1 staining score, (20B) apoptotic bodies/fd, (20C) % of PCNA labeling, (20D) % of cytoplasmic HMGB1, and (20E) LC-3B positive cells/fd. Statistical significance was determined by 2-sided Wilcoxon rank sum test. Also shown is (20F) volcano plot illustrating fold change in individual annotated lipid species stratified by lipid domain in plasma of RM-9 bearing C57BL/6N mice or control mice. (i) acylcarnitines (ii) ceramides (iii) cholesterol esters (iv) diacylglycerols (v) free fatty acids (vi) glycosphingolipids (vii) lysophospholipids (viii) oxylipins (ix) phospholipids (x) sphingomyelins (x) triacylglycerols.
Inhibition of tumor growth by eliglustat was next examined. RM-9 cells harbor driver oncogenic RAS and MYC genes which model RAS-MAPK pathway activation and MYC-driven transcriptional activities which are associated with aggressive primary prostate cancer. RM-9-luciferase cells were subcutaneously implanted into C57BL/6N mice. RM-9 tumor growth was suppressed by eliglustat (FIGS. 19A, 19B, and 19C). […] In addition, plasma Cav-1 levels tended to be elevated in RM-9 tumor-bearing mice compared to control mice.

LNCaP cells = experiment: Viability (MTS assay) of LNCaP cells treated with eliglustat following Cav-1 overexpression; assay type: cell-based, human; conditions: 64 μM eliglustat
Protocol: (§6) FIGS. 18A and 18B show (18A) the viability (MTS assay) of PC-3M cells treated with 128 μM eliglustat after (left) knockdown of CAV1: or (right) following pre-treatment with Cav-1 monoclonal blocking antibody: (i) siCtrl (ii) siCAV1-1 (iii) siCAV1-2 (iv) IgG=vehicle (v) IgG+Eliglustat (vi) abCAV1+Vehicle (vii) abCAV1+Eliglustat. (18B) Viability (MTS assay) of LNCaP cells treated with 64 μM eliglustat following Cav-1 overexpression.

PC-3M cells [7] = experiment: Viability (MTS assay) of PC-3M cells treated with eliglustat after CAV1 knockdown or Cav-1 blocking antibody; assay type: cell-based, human; conditions: 128 μM eliglustat
Protocol: as §6

[8] = immunohistochemistry, RM-9 tumors

| Compound | alterations in the lipidome [1] | cytotoxicity (viability relative to control) [2] | cytotoxicity (viability relative to control) [3] | alterations in the lipidome [4] | cytotoxicity (viability relative to control) ([2]; RM-9 cells, 48 hour treatment) | cytotoxicity (viability relative to control) ([3]; PC-3M cells, 48 hour treatment) | mechanism of acute cytotoxic effects (cytotoxicity, apoptosis at 4 hrs and 24 hrs) [5] | protein expression of mitophagy-associated marker LC3B-II (PC-3M cells [6]) | protein expression of Parkin and PINK1 (PC-3M cells [6]; acute (6 hr) treatment) | mitochondrial morphology (PC-3M cells [6]; acute (6 hr) treatment, 128 μM) | RM-9 tumor growth (RM-9 tumors; C57BL/6N mice, 60 mg/kg daily intraperitoneal injection) | glycosphingolipids in RM-9 tumor tissue (RM-9 tumors; C57BL/6N mice, 60 mg/kg, metabolomics of tumor tissue) | BrdU-TUNEL staining in tumor tissue (RM-9 tumors; [8]) | Cav-1 staining in tumor tissue (RM-9 tumors; [8]) | HMGB1 staining in tumor tissue (RM-9 tumors; [8]) | LC3B staining in tumor tissue (RM-9 tumors; [8]) | PCNA staining in tumor tissue (RM-9 tumors; [8]) | anti-cancer effect (viability, MTS) following Cav-1 overexpression (LNCaP cells) | sensitivity to eliglustat (viability, MTS) after knockdown of CAV1 (PC-3M cells [7]) |
| --- | --- | --- | --- | --- | --- | --- | --- | --- | --- | --- | --- | --- | --- | --- | --- | --- | --- | --- | --- |
| CCCCCCCCCC(=O)NC(CN1CCOCC1)C(O)c1ccccc1 (stereo not shown) [PDMP, 1-phenyl-2-decanoylamino-3-morpholino-1-propanol] | accumulation of intracellular ceramides, acylcarnitines, lysophospholipids and diacylglycerols and reductions in glycosphingolipids, phospholipids and triacylglycerols | dose-dependent cytotoxicity | dose-dependent cytotoxicity | accumulation of intracellular ceramides, acylcarnitines, lysophospholipids and diacylglycerols and reductions in glycosphingolipids, phospholipids and triacylglycerols |  |  |  |  |  |  |  |  |  |  |  |  |  |  |  |
| CCCCCCCCCCCCCCCC(=O)N[C@H](CN1CCOCC1)[C@H](O)c1ccccc1 [PPMP, D-threo-1-phenyl-2-hexadecanoylamino-3-morpholino-1-propanol] | accumulation of intracellular ceramides, acylcarnitines, lysophospholipids and diacylglycerols and reductions in glycosphingolipids, phospholipids and triacylglycerols | dose-dependent cytotoxicity | dose-dependent cytotoxicity | accumulation of intracellular ceramides, acylcarnitines, lysophospholipids and diacylglycerols and reductions in glycosphingolipids, phospholipids and triacylglycerols |  |  |  |  |  |  |  |  |  |  |  |  |  |  |  |
| CCCCCCCC(=O)N[C@H](CN1CCCC1)[C@H](O)c1ccc2c(c1)OCCO2 [eliglustat] | accumulation of intracellular ceramides, acylcarnitines, lysophospholipids and diacylglycerols and reductions in glycosphingolipids, phospholipids and triacylglycerols |  |  | accumulation of intracellular ceramides, acylcarnitines, lysophospholipids and diacylglycerols and reductions in glycosphingolipids, phospholipids and triacylglycerols | dose-dependent cytotoxicity | dose-dependent cytotoxicity | non-apoptotic mechanism | increased | increased | loss of the branched, fused-like-mitochondrial architecture and accumulation of punctate mitochondria co-localized with the lysosome | suppressed | reductions in glycosphingolipids | statistically significantly increased | statistically significantly reduced | statistically significantly increased | statistically significantly increased | statistically significantly reduced | reduced the anti-cancer effects | further sensitized |
